These results are taken from ChEMBL document CHEMBL1123205, “Synthesis and antihypertensive activity of a series of 4-amino-6,7-dimethoxyquinazoline derivatives” (1986).

Common to all, as to format: functional
Experiment [1] has as its system Rattus norvegicus. Nature of the experiment: Antihypertensive activity determined as percent fall in blood pressure after 2 hr in spontaneously hypertensive rats administered with 10 mg/kg (po).
The subject of experiment [2] is Rattus norvegicus. Nature of the experiment: Antihypertensive activity determined as percent fall in blood pressure after 4 hours in spontaneously hypertensive rats administered with 10 mg/kg, (po).
Experiment [3] relates to Rattus norvegicus. Nature of the experiment: Antihypertensive activity determined as percent fall in blood pressure after 4 hours in spontaneously hypertensive rats administered with 3 mg/kg, (po).
The test system of experiment [4] is Rattus norvegicus. In words: Antihypertensive activity determined as percent fall in blood pressure after 2 hr in spontaneously hypertensive rats administered with 3 mg/kg (po).

Regarding `COc1cc2nc(N(C)CCCNC(=O)c3cc4ccccc4o3)nc(N)c2cc1OC.Cl`, the Activity in experiment [1] and in experiment [2] was 0% in each case.
As to `COc1cc2nc(N(C)CCCNC(=O)C3Cc4ccccc4O3)nc(N)c2cc1OC.Cl` (configuration not stated), the Activity is listed as -22% in experiment [1] and -19% in experiment [2].
The like results for `COc1cc2nc(N(C)CCCN(C)C(=O)c3cc(OC)c(OC)c(OC)c3)nc(N)c2cc1OC.Cl` were, in that order, -11% and -6%.
For the compound `COc1cc2nc(N(C)CCCN(C)C(=O)c3nnc(SC)o3)nc(N)c2cc1OC.Cl`, the Activity is -20% in experiment [1] and -6% in experiment [2].
For the compound `COc1cc2nc(N(C)CCCNC(=O)C3CCCO3)nc(N)c2cc1OC.Cl` (configuration not stated) [ALFUZOSIN HYDROCHLORIDE], the Activity in experiment [1] was -34%; in experiment [2], -24%.
Consider `COc1cc2nc(N3CCN(C(=O)c4ccco4)CC3)nc(N)c2cc1OC.Cl` [PRAZOSIN HYDROCHLORIDE], for which the Activity in experiment [3] is given as -25%; in experiment [1], -37%; in experiment [2] it was -35%; in experiment [4] it was -30%.
`COc1cc2nc(N(C)CCN(C)C(=O)c3ccco3)nc(N)c2cc1OC.Cl`: the Activity in experiment [1] and in experiment [2] was 0% in each case.
Turning to `COc1cc2nc(N(C)CCCN(C)C(=O)c3cccc(C)c3)nc(N)c2cc1OC.Cl`, the Activity in experiment [1] is -10%; in experiment [2], 0%.
Consider `COc1cc2nc(N(C)CCCN(C)C(=O)c3ccco3)nc(N)c2cc1OC.Cl`, for which the Activity is -24% in experiment [1] and -20% in experiment [2].
Take `COc1cc2nc(N(C)CCCN(C)C(=O)c3cccnc3)nc(N)c2cc1OC.Cl`: the Activity in experiment [1] is reported as -5%; in experiment [2], -9%.
The like results for `COc1cc2nc(NCCCN(C)C(=O)C3CCCO3)nc(N)c2cc1OC.Cl` (configuration not stated) were, in that order, -8% and -6%.
For the compound `COc1cc2nc(N(C)CCCNC(=O)c3ccccc3)nc(N)c2cc1OC.Cl`, the Activity in experiment [1] is recorded as -31%; in experiment [2], -23%.
As for `COc1cc2nc(N(C)CCCNC(=O)C3COc4ccccc4O3)nc(N)c2cc1OC.Cl` (configuration not stated), the Activity in experiment [1] is 2%; in experiment [2] it was -6%.
The corresponding values for `CCN(CCCN(C)C(=O)c1ccccc1)c1nc(N)c2cc(OC)c(OC)cc2n1.Cl` are -16% and -12%.
The corresponding values for `CCN(CCCN(CC)c1nc(N)c2cc(OC)c(OC)cc2n1)C(=O)c1ccccc1.Cl` are -1% and -5%.
The corresponding values for `COc1cccc(C(=O)N(C)CCCN(C)c2nc(N)c3cc(OC)c(OC)cc3n2)c1.Cl` are -12% and 0%.
With `COc1cc2nc(N(C)CCCN(C)C(=O)c3ccccc3)nc(N)c2cc1OC.Cl`, the Activity is -23% in experiment [1] and -15% in experiment [2].
Regarding `COc1cc2nc(N(C)CCCNC(=O)c3ccco3)nc(N)c2cc1OC.Cl`, the Activity in experiment [1] is on record as -20%; in experiment [2], -17%.
The corresponding values for `COc1cc2nc(N(C)CCCN(C)C(=O)C3CCCO3)nc(N)c2cc1OC.Cl` (configuration not stated) are -14% and -7%.
Regarding `COc1cc2nc(N(C)CCCN(CC(C)C)C(=O)c3ccccc3)nc(N)c2cc1OC.Cl`, the Activity in experiment [1] is reported as 0%; in experiment [2], 6%.
The like results for `COc1cc2nc(N(C)CCCCN(C)C(=O)c3ccccc3)nc(N)c2cc1OC.Cl` were, in that order, -21% and -12%.
The like results for `COc1cc2nc(NCCCNC(=O)c3ccccc3)nc(N)c2cc1OC.Cl` were, in that order, -9% and -7%.
The like results for `COc1cc2nc(N(C)CCCNC(=O)C3CC3)nc(N)c2cc1OC.Cl` were, in that order, -19% and -12%.
For the compound `COc1cc2nc(N(C)CCCNC(=O)C3CCCC3)nc(N)c2cc1OC.Cl`, the Activity is given as -30% in experiment [1] and -20% in experiment [2].
Regarding `COc1cc2nc(N(C)CCN(C)C(=O)c3ccccc3)nc(N)c2cc1OC`, the Activity in experiment [1] and in experiment [2] was 0% in each case.
Consider `COc1cc2nc(N(C)CCCNC(=O)C3CCOCC3)nc(N)c2cc1OC`, for which the Activity in experiment [1] is given as -27%; in experiment [2], -7%.
The like results for `COc1cc(OC)cc(C(=O)N(C)CCCN(C)c2nc(N)c3cc(OC)c(OC)cc3n2)c1.Cl` were, in that order, -6% and -2%.
As for `COc1cc2nc(N(C)CCCNC(=O)C3CCOC3)nc(N)c2cc1OC.Cl` (configuration not stated), the Activity in experiment [1] was -24%; in experiment [2], -10%.
For `COc1cc2nc(N(C)CCCNC(=O)/C=C/c3ccccc3)nc(N)c2cc1OC.Cl`, the values for the Activity in experiment [1] and in experiment [2] were 0% and 3%, respectively.
In the case of `CCN(CCCN(CC)c1nc(N)c2cc(OC)c(OC)cc2n1)C(=O)c1ccco1.Cl`, the Activity in experiment [1] was -16%; in experiment [2], -11%.
